# Experimental data taken from US10660898B2, “Benzimidazole derivatives as PI3 kinase inhibitors” (GLAXOSMITHKLINE LLC, priority 2010, dated 2020).
# How the values were obtained:
# Experiment in all cases: Anchorage independent soft agar tumor growth assay
# Format in all cases: cell-based
# UM-UC-3 = UM-UC-3 bladder transitional, PTEN Loss, No protein
# Procedure: (§1) Cellular Assays—Cell Growth Inhibition Assay in PTEN Wild-Type or PTEN Deficient Tumor Cell Lines Twenty-two Phosphatase and Tensin Homolog (PTEN) wild-type or PTEN deficient tumor cell lines were cultured generally according to instructions supplied by cell culture supplier American Type Culture Collection, Manassas, Va., with 10% fetal bovine serum at 5% CO2 and 37° C. Cells were seeded into either a T-75 or a T-175 flask 3-4 days prior to 96-well assay plating such that the flasks were approximately 70-80% confluent of the time of harvest. Cells were harvested using 0.25% trypsin-EDTA (Invitrogen #25200056). Trypan Blue exclusion staining was used to determine cell number. Viable cells were plated in clear, flat bottom 96-well plates (BD #353075) under anchorage independent conditions at 2,000-10,000 cells per well depending on the cell line. To generate anchorage independent growth conditions, a 5% agar stock solution in water was made and autoclaved to melt and sterilize. From the 5% agar solution, a 0.6% agar/media+10% fetal bovine serum (FBS) solution was made to generate a bottom agar layer in the plates to prevent cell attachment. Seventy five microliters per well of the 0.6% agar-media solution was added to the plates. After solidification, a cell solution of 266,870 to 1, 334,022 cells (depending on the cell line) in 10 ml of 0.3% agar/media+10% FBS was made and 75 μl of the cell/media/agar suspension was added to the plates. After the cell layer solidified, 50 μl of media+10% FBS was added to the top of the cells. A 0.3% Brij 35 (Sigma B4184) solution in media+10% FBS was added to column 12 as a background subtraction control. The cells were incubated overnight at 5% CO2 and 37° C. The next day one plate of cells was processed at the time of compound addition to quantify the starting number of cells (T=0 or T0). […] Three hundred microliters of media was added to the compound dilutions. Ten microliters per well of the serial dilutions was added to the cells and the plates incubated for 6 days at 5% CO2 and 37° C. […] Following the 6-day incubation, 20 μl of Alamar Blue (Invitrogen # DAL1100) was added to the cells, incubated at 5% CO2 and 37° C. for 6 hours and the plates read on a Spectramax (Gemini EM) at 530 nm (excitation) and 590 nm (emission) with the auto cut-off disabled. For analysis of cell growth inhibition dose response curves, the data was plotted as the percent of the DMSO-treated control samples (DMSO samples set to 100%). […] Values from wells containing 0.3% Brij 35 (under anchorage independent conditions) were subtracted from all samples for background correction.
# U251 = U251 CNS glioblastoma, PTEN p.E242fs*15, No protein
# Procedure: as §1
# H4 = H4 CNS glioblastoma, PTEN Loss, No protein
# Procedure: as §1
# BT474 = BT474 breast carcinoma, PTEN Wild-type, Protein
# Procedure: as §1
# HCT-116 = HCT-116 colon carcinoma, PTEN Wild-type
# Procedure: as §1
# U-87MG = U-87MG CNS glioblastoma, PTEN p.? (splice site mutation), No protein
# Procedure: as §1
# SKOV-3 = SKOV-3 ovary adenocarcinoma, PTEN Wild-type
# Procedure: as §1
# Colo205 = Colo205 colon carcinoma, PTEN Wild-type
# Procedure: as §1
# C32 = C32 skin melanoma, PTEN p.55fs*, No protein
# Procedure: as §1
# WM-115 = WM-115 skin melanoma, PTEN p.165fs*, No protein
# Procedure: as §1
# HCC1395 = HCC1395 breast carcinoma, PTEN p.N212fs*3, No protein
# Procedure: as §1
# HCC1954 = HCC1954 breast carcinoma, PTEN Wild-type, Protein
# Procedure: as §1
# HCC19377 = HCC19377 breast carcinoma, PTEN Loss, No protein
# Procedure: as §1
# SW1088 = SW1088 CNS glioblastoma, PTEN Loss, No protein
# Procedure: as §1
# MDA-MB-468 = MDA-MB-468 breast carcinoma, PTEN p.?, L70Fs*7, No protein
# Procedure: as §1
# [1] = percent of DMSO-treated control
# [2] = 144 h, 6-day incubation, Alamar Blue, read-out: Compound EC50 (nM) ± StDev
# [3] = Homo sapiens, 144 h, 6-day incubation, Alamar Blue, read-out: Compound EC50 (nM) ± StDev
smiles,measurement,setting,value
"Cc1c(Cn2c(C)nc3c(C(=O)O)cc(N4CCOCC4)cc32)cccc1C(F)(F)F [Example 31, 2-methyl-1-{[2-methyl-3-(trifluoromethyl)phenol]methyl}-6-(4-morpholinyl)-1H-benzimidazole-4-carboxylic acid]",EC50,"UM-UC-3; Homo sapiens, UMUC3, 144 h, 6-day incubation, Alamar Blue, read-out: Compound EC50 (nM) ± StDev",10 ± 8 nM
same,Compound Ymin ± StDev,UM-UC-3; [1],83 ± 29
same,EC50,"U251; Homo sapiens, U-251, 144 h, 6-day incubation, Alamar Blue, read-out: Compound EC50 (nM) ± StDev",19000 ± 8620 nM
same,Compound Ymin ± StDev,U251; [1],80 ± 17
same,EC50,H4; [2],12 ± 8 nM
same,Compound Ymin ± StDev,H4; [1],55 ± 18
same,Compound Ymin ± StDev,BT474; [1],75 ± 3
same,EC50,"BT474; Homo sapiens, BT-474, 144 h, 6-day incubation, Alamar Blue, read-out: Compound EC50 (nM) ± StDev",3360 ± 868 nM
same,Compound Ymin ± StDev,HCT-116; [1],>80
same,EC50,HCT-116; [3],> 30700 nM
same,EC50,U-87MG; [3],2980 ± 2770 nM
same,Compound Ymin ± StDev,U-87MG; [1],34 ± 18
same,EC50,"SKOV-3; Homo sapiens, SK-OV-3, 144 h, 6-day incubation, Alamar Blue, read-out: Compound EC50 (nM) ± StDev",> 30700 nM
same,Compound Ymin ± StDev,SKOV-3; [1],>80
same,Compound Ymin ± StDev,Colo205; [1],>80
same,EC50,"Colo205; Homo sapiens, COLO 205, 144 h, 6-day incubation, Alamar Blue, read-out: Compound EC50 (nM) ± StDev",> 30700 nM
same,Compound Ymin ± StDev,C32; [1],20 ± 14
same,EC50,C32; [3],8 ± 2 nM
same,EC50,WM-115; [3],8 ± 3 nM
same,Compound Ymin ± StDev,WM-115; [1],54 ± 14
same,Compound Ymin ± StDev,HCC1395; [1],26 ± 9
same,EC50,HCC1395; [3],114 ± 53 nM
same,Compound Ymin ± StDev,HCC1954; [1],>80
same,EC50,HCC1954; [3],> 30700 nM
same,EC50,HCC19377; [2],24 ± 8 nM
same,Compound Ymin ± StDev,HCC19377; [1],67 ± 8
same,EC50,SW1088; [3],12 ± 6 nM
same,Compound Ymin ± StDev,SW1088; [1],36 ± 8
same,EC50,MDA-MB-468; [3],89 ± 55 nM
same,Compound Ymin ± StDev,MDA-MB-468; [1],44 ± 6
